Assays:
[1] = target: T1, CYP450 enzyme subtype 3A4-T (Homo sapiens, UniProt P08684); assay: CYP enzyme single point inhibition test, 3A4-T; type: in vitro ADME; conditions: human liver microsomes, single point method
T1 construct: Human liver microsome incubation system was used; from tissue; host or cells: human liver microsomes
Protocol: Human liver microsome incubation system was used, and the single point method was used to quickly predict the inhibition on CYP450 enzyme subtypes (1A2, 2C19, 2D6, 3A4-M, and 3A4-T) by compounds.
For 2.5 mM NADPH, 4.165 mg of NADPH (reduced nicotinamide adenine dinucleotide phosphate) was weighed and 100 mM phosphate buffer was added to 2 mL. For 0.25 mg/mL microsomes, 50 μL of 20 mg/mL microsomes was added to 4 mL of 100 mM phosphate buffer and mixed evenly.
The test example compound was weighed, diluted to 10 mM with DMSO, and then diluted to 100 μM with 100 mM phosphate buffer.
• 1. 40 μL of liver microsomes, 10 μL of substrate, and 10 μL of test compound were added in a 96-well plate and the mixture was pre-incubated for 3 min. • 2. 40 μL of NADPH was added. • 3. At 20 min, 300 μL of acetonitrile stop solution containing internal standard was added. • 4. The mixture was centrifuged and the sample was loaded.

[2] = tested on: spontaneously hypertensive rat (SHR) model; assay: Pharmacodynamic evaluation on blood pressure in spontaneously hypertensive rats; type: in vivo; conditions: P.O, 30 mpk, 1-8 h after administration, P<0.05
From the text: This experiment used a spontaneously hypertensive rat (SHR) model to evaluate the pharmacodynamic effect of the test compounds on the blood pressure and heart rate of the model.
Kent Scientific CODA non-invasive blood pressure system.
Spontaneously hypertensive rats (SHR) were provided by Beijing Vital River Laboratory Animal Technology Co., Ltd., male, 150-200 g, 13-15 weeks old, 50 rats.
After animals arrived at the experimental facility, the animals were adapted to the animal facility for 5-7 days. 4.2 After the adaptation period, the animals were adapted to the tail oversleeve restrain for 3 days, and the tail oversleeve restrain was performed twice a day. After the last restrain adaptation, the basal blood pressure was measured, and the animals were randomly divided into groups according to the basal blood pressure. There was no significant difference between the average systolic blood pressure of animals in each group, and the number of animals in each group met the requirements of statistical testing and pharmacodynamic guidelines. 4.3 On the second day after grouping, the animals were administered according to experimental design and grouping (P.O, 5 mL/kg), and the systolic blood pressure (SBP), diastolic blood pressure (DBP), mean arterial pressure (MAP) and heart rate (HR) of the animals were measured before administration and at 1, 2, 4, 6, 8 and 24 h after administration using tail oversleeve method.
Statistical differences between groups were analyzed by Two-way ANOVA test. Among them, P<0.05 indicated a significant difference, and P<0.01 indicated an extremely significant difference.

T1 sequence (P08684 whole entry): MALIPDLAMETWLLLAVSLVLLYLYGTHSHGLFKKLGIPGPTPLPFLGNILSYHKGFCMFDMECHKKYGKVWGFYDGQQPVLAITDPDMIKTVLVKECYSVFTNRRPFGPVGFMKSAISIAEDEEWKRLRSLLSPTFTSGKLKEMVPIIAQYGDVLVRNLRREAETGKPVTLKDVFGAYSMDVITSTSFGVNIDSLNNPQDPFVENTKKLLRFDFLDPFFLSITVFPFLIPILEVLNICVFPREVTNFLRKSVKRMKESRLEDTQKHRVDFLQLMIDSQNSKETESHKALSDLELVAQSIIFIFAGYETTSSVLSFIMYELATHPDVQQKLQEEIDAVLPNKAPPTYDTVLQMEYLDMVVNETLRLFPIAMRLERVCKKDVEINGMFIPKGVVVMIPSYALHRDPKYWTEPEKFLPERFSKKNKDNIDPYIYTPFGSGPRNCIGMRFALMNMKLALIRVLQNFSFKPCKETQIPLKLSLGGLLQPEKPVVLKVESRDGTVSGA

| SMILES | IC50 [1] [µM] | blood pressure (systolic blood pressure, diastolic blood pressure, mean arterial pressure) compared with the vehicle group [2] |
| --- | --- | --- |
| CCCCC1=NC2(CCCC2)C(=O)N1Cc1ccc(-c2ccccc2S(=O)(=O)Nc2noc(C)c2Br)c(COCC)c1 [Example 46, 2-[4-[(2-butyl-4-oxo-1,3-diazaspiro[4.4]non-1-en-3-yl)methyl]-2-(ethoxymethyl)phenyl]-N-(4-bromo-5-methyl-isoxazol-3-yl)benzsulfamide] | > 100 |  |
| [2H]C([2H])(OCC)c1cc(CN2C(=O)C3(CCCC3)N=C2CCCC)ccc1-c1ccccc1S(=O)(=O)Nc1noc(C)c1Cl [Example 49, 4′-((2-butyl-4-oxo-1,3-diazospiro[4.4]non-1-en-3-yl)methyl)-N-(4-chloro-5-methylisoxazol-3-yl)-2′-(ethoxydeuteriummethyl)-[1,1′-biphenyl]-2-sulfonamide] |  | significantly reduced blood pressure |

— US20240368123A1, “AROMATIC RING-CONTAINING BIOLOGICAL ANTAGONIST, AND PREPARATION METHOD THEREFOR AND USE THEREOF” (SHANGHAI HANSOH BIOMEDICAL CO., LTD., priority 2021, published 2024)
